Assay results from US20130030017A1, “QUINOLINE DERIVATIVES AS ANTIBACTERIAL AGENTS” (priority 2005, published 2013).
In brackets after ≈: the same amount, converted by molar mass.

How the values were obtained:
Format in all cases: cell-based
Details in all cases: 90% inhibitory concentration for bacterial growth, 37° C., 24 hours, resazurin fluorescence
[1] = tested on: Streptococcus pneumoniae (ATCC6305); assay: Microtitre plate assay, IC90 determination (SPN 6305)
Procedure: (§1) The bacteria used in this study were grown overnight in flasks containing 100 ml Mueller-Hinton Broth (Becton Dickinson—cat. no. 275730) in sterile de-ionized water, with shaking, at 37° C. Stocks (0.5 ml/tube) were stored at −70° C. until use. Bacteria titrations were performed in microtiter plates and colony forming units (CFUs) were determined. In general, an inoculum level of approximately 100 CFUs was used for susceptibility testing.
(§2) Flat-bottom, sterile 96-well plastic microtiter plates were filled with 180 μl of sterile deionized water, supplemented with 0.25% BSA. Subsequently, stock solutions (7.8× final test concentration) of compounds were added in 45 μl volumes in column 2 Serial five-fold dilutions (45 μl in 180 μl) were made directly in the microtiter plates from column 2 to reach column 11. Untreated control samples with (column 1) and without (column 12) inoculum were included in each microtiter plate. Depending on the bacteria type, approximately 10 to 60 CFU per well of bacteria inoculum (100 TCID50), in a volume of 100 μl in 2.8× Mueller-Hinton broth medium, was added to the rows A to H, except column 12. The same volume of broth medium without inoculum was added to column 12 in row A to H. The cultures were incubated at 37° C. for 24 hours under a normal atmosphere (incubator with open air valve and continuous ventilation). At the end of incubation, one day after inoculation, the bacterial growth was quantitated fluorometrically. Therefore resazurin (0.6 mg/ml) was added in a volume of 20 μl to all wells 3 hours after inoculation, and the plates were re-incubated overnight. A change in colour from blue to pink indicated the growth of bacteria. The fluorescence was read in a computer-controlled fluorometer (Cytofluor Biosearch) at an excitation wavelength of 530 nm and an emission wavelength of 590 nm. The % growth inhibition achieved by the compounds was calculated according to standard methods. The IC90 (expressed in μg/ml) was defined as the 90% inhibitory concentration for bacterial growth.

[2] = tested on: Staphylococcus aureus (ATCC29213); assay: Microtitre plate assay, IC90 determination (STA 29213)
Procedure: as §1, §2

[3] = tested on: Enterococcus faecalis (ATCC29212); assay: Microtitre plate assay, IC90 determination (EFA 29212)
Procedure: as §1, §2

[4] = tested on: Streptococcus pyogens (ATCC8668); assay: Microtitre plate assay, IC90 determination (SPY 8668)
Procedure: as §1, §2

[5] = tested on: Pseudomonas aeruginosa (ATCC27853); assay: Microtitre plate assay, IC90 determination (PAE 27853)
Procedure: as §1, §2

COc1nc2ccccc2cc1C(c1ccccc1)C(O)(CCc1ccccc1)CCN(C)C (racemic) [Compound 13]
IC90 SPN 6305 [1]: 4.1 µg/mL (≈ 9.02 µM) | IC90 STA 29213 [2]: 36.1 µg/mL (≈ 79.4 µM)

COc1nc2cc(C)c(Br)cc2cc1C(c1ccccc1)C(O)(CCc1ccccc1)CCN(C)C (racemic) [Compound 16]
IC90 EFA 29212 [3]: 10.9 µg/mL (≈ 19.9 µM) | IC90 SPY 8668 [4]: 2.2 µg/mL (≈ 4.02 µM) | IC90 PAE 27853 [5]: 2.2 µg/mL (≈ 4.02 µM) | IC90 SPN 6305 [1]: 2.2 µg/mL (≈ 4.02 µM) | IC90 STA 29213 [2]: 19.4 µg/mL (≈ 35.4 µM)

COc1nc2ccc(Br)cc2cc1C(c1ccccc1)C(O)(CCc1cccc(OC(F)(F)F)c1)CCN(C)C (racemic) [Compound 45]
IC90 EFA 29212 [3]: 2.2 µg/mL (≈ 3.56 µM) | IC90 SPY 8668 [4]: 2.0 µg/mL (≈ 3.24 µM) | IC90 PAE 27853 [5]: 0.7 µg/mL (≈ 1.13 µM) | IC90 SPN 6305 [1]: 0.4 µg/mL (≈ 0.648 µM) | IC90 STA 29213 [2]: 2.5 µg/mL (≈ 4.05 µM)

COc1nc2ccc(Br)cc2cc1C(c1ccccc1)C(O)(CCc1ccc(C(F)(F)F)cc1)CCN(C)C (racemic) [Compound 46]
IC90 EFA 29212 [3]: 1.9 µg/mL (≈ 3.16 µM) | IC90 SPY 8668 [4]: 1.9 µg/mL (≈ 3.16 µM) | IC90 PAE 27853 [5]: 1.9 µg/mL (≈ 3.16 µM) | IC90 SPN 6305 [1]: 0.5 µg/mL (≈ 0.831 µM) | IC90 STA 29213 [2]: 1.9 µg/mL (≈ 3.16 µM)

COc1nc2ccc(Br)cc2cc1C(c1ccccc1)C(O)(CCc1cccc(F)c1)CCN(C)C (racemic) [Compound 47]
IC90 SPN 6305 [1]: 8.7 µg/mL (≈ 15.8 µM) | IC90 STA 29213 [2]: 43.8 µg/mL (≈ 79.4 µM)

COc1nc2ccc(Br)cc2cc1C(c1ccccc1)C(O)(CCc1cccc(F)c1)CCN(C)C (racemic) [Compound 48]
IC90 EFA 29212 [3]: 43.8 µg/mL (≈ 79.4 µM) | IC90 SPY 8668 [4]: 43.8 µg/mL (≈ 79.4 µM) | IC90 PAE 27853 [5]: 43.8 µg/mL (≈ 79.4 µM) | IC90 SPN 6305 [1]: 2.2 µg/mL (≈ 3.99 µM) | IC90 STA 29213 [2]: 1.7 µg/mL (≈ 3.08 µM)

COc1nc2ccc(Br)cc2cc1C(c1ccccc1)C(O)(CCc1ccc(F)cc1)CCN(C)C (racemic) [Compound 49]
IC90 EFA 29212 [3]: 43.8 µg/mL (≈ 79.4 µM) | IC90 SPY 8668 [4]: 43.8 µg/mL (≈ 79.4 µM) | IC90 PAE 27853 [5]: 43.8 µg/mL (≈ 79.4 µM) | IC90 SPN 6305 [1]: 2.2 µg/mL (≈ 3.99 µM) | IC90 STA 29213 [2]: 11.0 µg/mL (≈ 19.9 µM)

COc1nc2ccc(Br)cc2cc1C(c1ccccc1)C(O)(CCc1ccc(C)cc1)CCN(C)C (racemic) [Compound 52]
IC90 EFA 29212 [3]: 1.7 µg/mL (≈ 3.1 µM) | IC90 SPY 8668 [4]: 1.7 µg/mL (≈ 3.1 µM) | IC90 PAE 27853 [5]: 1.7 µg/mL (≈ 3.1 µM) | IC90 SPN 6305 [1]: 1.4 µg/mL (≈ 2.56 µM) | IC90 STA 29213 [2]: 6.9 µg/mL (≈ 12.6 µM)

COc1nc2ccc(Br)cc2cc1C(c1ccccc1)C(O)(CCc1ccccc1Cl)CCN(C)C (racemic) [Compound 54]
IC90 EFA 29212 [3]: 4.5 µg/mL (≈ 7.92 µM) | IC90 SPY 8668 [4]: 2.0 µg/mL (≈ 3.52 µM) | IC90 PAE 27853 [5]: 2.0 µg/mL (≈ 3.52 µM) | IC90 SPN 6305 [1]: 2.3 µg/mL (≈ 4.05 µM) | IC90 STA 29213 [2]: 10.1 µg/mL (≈ 17.8 µM)

COc1nc2ccc(Br)cc2cc1C(c1ccccc1)C(O)(CCc1ccc(Cl)cc1)CCN(C)C (racemic) [Compound 55]
IC90 SPN 6305 [1]: 0.3 µg/mL (≈ 0.528 µM) | IC90 STA 29213 [2]: 1.8 µg/mL (≈ 3.17 µM)

COc1nc2ccc(Br)cc2cc1C(c1ccccc1)C(O)(CCc1ccc(Cl)cc1)CCN(C)C (racemic) [Compound 56]
IC90 SPN 6305 [1]: 5.7 µg/mL (≈ 10 µM) | IC90 STA 29213 [2]: 9.0 µg/mL (≈ 15.8 µM)

COc1nc2ccc(Br)cc2cc1C(c1ccccc1)C(O)(CCc1ccc(Cl)c(Cl)c1)CCN(C)C (racemic) [Compound 57]
IC90 SPN 6305 [1]: 0.5 µg/mL (≈ 0.83 µM) | IC90 STA 29213 [2]: 6.0 µg/mL (≈ 9.96 µM)

COc1nc2ccc(-c3ccccc3)cc2cc1C(c1ccccc1)C(O)(CCc1ccccc1)CCN(C)C (racemic) [Compound 59]
IC90 SPN 6305 [1]: 10.6 µg/mL (≈ 20 µM) | IC90 STA 29213 [2]: 42.2 µg/mL (≈ 79.5 µM)

COc1nc2ccc(-c3ccccc3)cc2cc1C(c1ccccc1)C(O)(CCc1ccccc1)CCN(C)C (racemic) [Compound 60]
IC90 SPN 6305 [1]: 10.6 µg/mL (≈ 20 µM) | IC90 STA 29213 [2]: 53.1 µg/mL (≈ 100 µM)

COc1nc2ccc(-c3cccnc3)cc2cc1C(c1ccccc1)C(O)(CCc1ccccc1)CCN(C)C (racemic) [Compound 61]
IC90 SPN 6305 [1]: 7.5 µg/mL (≈ 14.1 µM)

COc1nc2ccc(-c3ccco3)cc2cc1C(c1ccccc1)C(O)(CCc1ccccc1)CCN(C)C (racemic) [Compound 62]
IC90 SPN 6305 [1]: 10.4 µg/mL (≈ 20 µM) | IC90 STA 29213 [2]: 8.3 µg/mL (≈ 15.9 µM)

COc1nc2ccc(-c3cccs3)cc2cc1C(c1ccccc1)C(O)(CCc1ccccc1)CCN(C)C (racemic) [Compound 63]
IC90 EFA 29212 [3]: 19.0 µg/mL (≈ 35.4 µM) | IC90 SPY 8668 [4]: 21.4 µg/mL (≈ 39.9 µM) | IC90 PAE 27853 [5]: 8.5 µg/mL (≈ 15.8 µM) | IC90 SPN 6305 [1]: 2.1 µg/mL (≈ 3.91 µM) | IC90 STA 29213 [2]: 10.7 µg/mL (≈ 19.9 µM)

COc1nc2ccc(-c3cccs3)cc2cc1C(c1ccccc1)C(O)(CCc1ccccc1)CCN(C)C (racemic) [Compound 64]
IC90 SPN 6305 [1]: 10.7 µg/mL (≈ 19.9 µM) | IC90 STA 29213 [2]: 42.6 µg/mL (≈ 79.4 µM)

COc1nc2ccc(C)cc2cc1C(c1ccccc1)C(O)(CCc1ccccc1)CCN(C)C (stereo not shown) [Compound 2]
IC90 EFA 29212 [3]: 37.2 µg/mL (≈ 79.4 µM) | IC90 SPY 8668 [4]: 37.2 µg/mL (≈ 79.4 µM) | IC90 PAE 27853 [5]: 37.2 µg/mL (≈ 79.4 µM) | IC90 SPN 6305 [1]: 1.9 µg/mL (≈ 4.05 µM) | IC90 STA 29213 [2]: 7.4 µg/mL (≈ 15.8 µM)
